From patent publication US9248108B2 (Ottawa Hospital Research Institute, priority 2012, dated 2016)
Like-named read-outs stand apart in the source and are kept apart here. Marks after values point to notes of the source that are not given here.

How the values were obtained:
ovarian polyamines = assay: Ovarian polyamine quantification by ion chromatography; assay type: in vivo, mouse; conditions: older mice, 1% putrescine in drinking water for several days
Procedure: A Dionex ion chromatography system was used to analyze polyamines during ovulation. This system employs an online conductivity detector coupled with an anion suppressor such that only cations are detected. Ovaries were extracted in 5% trichloric acid (TCA) followed by extraction with diethyl ether. The TCA extracts were diluted in water before being applied to the ion chromatography system.
(§1) Polyamines from ovarian samples were determined by ion chromatography (IC) system (Rey and Pohl, 2003. J. Chromatography A 997:199-206). Ovaries were collected immediately after animal sacrifice and stored at −80° C. until use. The samples were thawed and minced, and then 5% trichloroacetic acid (TCA) was added (20 μl/mg). The samples were ultra-sonicated 30 seconds thrice. After centrifugation, the supernatants were extracted twice with diethyl ether. The mouse blood was collected in a tube containing 1 iu/ml heparin (LEO). After centrifugation, the supernatant (plasma) was collected and 10% TCA was added by 1:1 in volume. These plasma samples were extracted twice with diethyl ether, as noted above. The extracts were diluted 10 times in water for polyamine analysis on Dionex Ion ICS-2100 system (Thermo scientific, Dionex, Sunnyvale, Calif., USA) according to the manufacture instructions, using the support software of PeakNet 6.40 SP5 Build 778.

[1] = 1 mM putrescine in drinking water, stated by Penderville H. et al; cited from earlier work
[2] = tested on: oocytes of very old (16 months) odc-/+ mice
Source text: Table 12 Summary of two independent experiments. N: total numbers of oocytes in two experiments; GV: oocytes remained in prophase I; MI, no germinal vesicle and no polar body seen (used for spindle examination); PB1, oocytes with first polar body; Fragmented: abnormal cleavage likely due to parthenogenetic activation. * one MI oocyte was lost during handling.

in vivo = conditions: mouse, plasma
Procedure: as §1

9-month-old CF1 mice = tested on: 9-month-old CF1 mice
Source text: Four (4) days later, the female mice are caged individually with fertile males (1:1) overnight. The females were examined in the morning for the presence of a vaginal plug (indicative of mating) and “plugged” females are considered E0 and separated from the males. Mice without a plug were continued mating until a plug was seen, or for up to a total of 4 days (average length of a mouse estrus cycle). Mice were sacrificed on E12 (“unplugged” mice were also sacrificed, taking the next morning following the 4-day-mating as E0) and their uterine horns inspected for normal embryos and dead embryos (resorption).

[3] = tested on: oocytes of C57BL/6 (8 months) mice
Procedure: GV oocytes isolated from the ovaries of control mice were incubated for 17 h in αMEM. […] Metaphase II eggs following IVM were karyotyped and data expressed. Karyotype analyses were carried out by dual stains (anti-CREST and Sytox green) of metaphase II chromosomes. N: number of interpretable metaphase II karyotypes containing at least 18 dyads or the equivalent (e.g. 17 dyads plus 2 separated sister chromatids). Hypoploid: 18-19 dyads. Euploid: 20 dyads. Hyperploid: 21. PSSC: any karyotypes containing separated sister chromatid(s), with the total of at least 18 dyads or the equivalents. Aneuploid: 2×hyperploid+PSSC. Detailed breakdowns are in Table 14.
Mice were euthanized by cervical dislocation 44-46 h after they were primed with 5 IU equine chorionic gonadotropin (eCG) intraperitonally. […] Ovaries were immediately removed and minced in M2 medium (Sigma; unless otherwise indicated, other chemicals used in this study were also purchased from Sigma) to release oocytes. Oocytes with a clear germinal vesicle (GV) were used for in vitro maturation (IVM) for 17 hours in IVM medium (αMEM medium supplemented with 5% fetal bovine serum and 1 mM L-glutamine) overlaid with mineral oil.
Chromosome spread was carried out according to Hodges and Hunt (Hodges & Hunt, 2002) with minor modifications. In brief, oocytes or 2-cell embryos were collected in M2 medium. The zona pellucida was removed by treatment with 0.5 units/μl pronase at 37° C. for 20 sec. Zona-free oocytes/embryos were rinsed in M2 medium to detach polar bodies. The oocytes/embryos were individually plated onto glass slides (1-10 oocytes/embryos per slide) predipped in the fixative (prepared weekly and stored at 4° C.) containing 1% paraformaldehyde (w/v), 0.15% Triton X-100 (v/v), and 3 mM dithiothreitol, pH 9.2. Slides were kept overnight in moist boxes at room temperature. The slides were then rinsed in 0.5% Kodak Flo (Eastman Kodak Company, Rochester, N.Y.) solution and air-dried. The slides were incubated in 1:200 diluted human anti-centromere serum (Immunovision, Springdale, Ark.) in PBS containing 1% BSA overnight at 4° C., in 1:300 diluted secondary antibody (goat anti-human) conjugated with rhodamine (Jackson ImmunoResearch) in PBS-BSA for 1 h at room temperature, and 0.1% SYTOX green (Invitrogen, Eugene, Oreg.) in PBS for 30 min at room temperature. To avoid bias, the slides were coded by a colleague before being examined by an investigator using epifluorescence microscopy and photographed. Decoding was done after karyotypes were tabulated.

[4] = number of MII eggs, 1% putrescine drinking water one week, IVM with 5 mM putrescine

SMILES: NCCCCN [Putrescine, putrescine]
- levels of ovarian spermidine and spermine (ovarian polyamines): remained unchanged
- levels of ovarian putrescine compared to control mice (ovarian polyamines; before or 5 h after hCG): appreciably higher
- fetal toxicity [1]: fetal toxicity was found
- Normal MI spindle ([2]; normal/examined MI oocytes): 19/20*
- dead ([2]; number of oocytes): 1
- GV ([2]; number of oocytes remained in prophase I, two experiments): 6
- fragmented ([2]; number of oocytes with abnormal cleavage): 0
- PB1 ([2]; number of oocytes with first polar body): 2
- MI ([2]; number of oocytes, no germinal vesicle and no polar body): 21
- concentration at 20 min (in vivo; sc): 42 µM
- concentration at 40 min (in vivo; subcutaneous): 16 µM
- concentration at 60 min (in vivo; subcutaneous): 8 µM
- Total implants (9-month-old CF1 mice; E12): 300
- Total normal fetuses (9-month-old CF1 mice; E12): 282
- Total resorption sites (9-month-old CF1 mice; E12): 18
- Total normal fetuses/total animals (9-month-old CF1 mice; E12, as fraction): 282/29
- Total normal fetuses/total pregnancies (9-month-old CF1 mice; E12, as fraction): 282/24
- Total resorption sites/total animals (9-month-old CF1 mice; E12, as fraction): 18/29
- Total resorption sites/total implants (9-month-old CF1 mice; E12, as fraction): 18/300
- Total resorption sites/total pregnancies (9-month-old CF1 mice; E12, as fraction): 18/24
- Total normal fetuses/total animals (9-month-old CF1 mice; E12, quotient): (9.27)
- Total normal fetuses/total pregnancies (9-month-old CF1 mice; E12, quotient): (11.75)
- Total resorption sites/total animals (9-month-old CF1 mice; E12, quotient): (0.62)
- Total pregnancy (9-month-old CF1 mice; number of mice, 1% putrescine in drinking water): 24
- Plug observed (9-month-old CF1 mice; number of mice, 1% putrescine in drinking water 5-8 days up to plug): 25
- Plug pregnancy (9-month-old CF1 mice; percent of plugged mice): (92.00%)
- Unplug pregnancy (9-month-old CF1 mice; percent of unplugged mice): (25.00%)
- Plug pregnancy (9-month-old CF1 mice; pregnant/plugged mice): 23/25
- Unplug pregnancy (9-month-old CF1 mice; pregnant/unplugged mice): 1/4
- % Hyperploidy ([3]; 1% putrescine drinking water one week, IVM with 5 mM putrescine): 0%
- % Aneuploidy ([3]; Aneuploid: 2×hyperploid+PSSC, 1% putrescine drinking water one week, IVM with 5 mM putrescine): 5.3%
- Euploid 20 [3, 4]: 83
- Hyperploid 21 [3, 4]: 0
- Hyperploid 22 [3, 4]: 0
- Hypoploid 19 [3, 4]: 21
- PSSC [3, 4]: 6
- Hypoploid 18 ([3]; number of MII eggs, 1% putrescine drinking water one week, then 17 h IVM with 5 mM putrescine): 4
- Hyperploid ([3]; number of eggs per experiment date (breakdown of Table 13)): 0
- number of fully grown GV oocytes in the ovaries ([3]; putrescine in drinking water, n=13): 25.3 /mouse
